Results reported in patent publication US10524469B2, “Acetate derived compounds from geranylorcinol. synthesis process for obtaining said compounds and use of said compounds as antifungal against Botrytis cinerea” (UNIVERSIDAD TÉCNICA FEDERICO SANTA MARÍA, priority 2015, dated 2020).
Where two headings read alike, the source gives them in different places.

Tested on: Botrytis cinerea
Assay: Mycelial growth inhibition of B. cinerea, radial growth method in PDA
Assay type: cell-based
Settings: for inhibition at 50 ppm / inhibition at 150 ppm / inhibition at 250 ppm: Botrytis cinerea; for Activity compared with the positive control when encapsulated in Pluronic F-127 micelle (in words): encapsulated in polymeric Pluronic F-127 micelle
Description: 20-40 milligrams of each of compounds 1 to 8 were dissolved in 500 microliters of Ethanol to have a stock solution of each compound according to its molecular weight. The stock solution was diluted in 5 mL of water so as to obtain a new stock solution of 5,000 ppm; from which corresponding aliquots were taken to achieve a final concentration on each plate with 50, 150 and 250 ppm potato dextrose agar (PDA) culture medium.
The method used for the preparation of polymeric micelles, based on Polycaprolactone (MW: 3.409 g/mol) or Pluronic® F-127 (MW: 12,500 g/mol) corresponds to the direct dissolution method consisting of the addition of the polymer to water with stirring and at room temperature, until the polymer dissolves to give a clear aqueous solution. The amount of polymer and water is chosen so as to have a solution of a concentration of 1×10^−3 M of polymer chains.
For the preparation of a solution of 50 mL of Pluronic F-127, 0.63 g is used and for the case of polycaprolactone 0.17 g is used.
The physical encapsulation of the compounds in the polymeric micelles (1×10^−3 M) is carried out by the emulsion method. The compound is dissolved in a volatile solvent (dichloromethane) and […] the polymer solution added in 100 μL aliquots to complete 400 μL reaching a concentration of 0.101 M of compound. By stirring in a vortex and applying ultrasound a very homogeneous milky emulsion is formed. The organic solvent is then removed by evaporation by heating the emulsion at 50° C. in a system open to air. Upon removal of the solvent, a clear solution remains containing the polymer forming micelles and the non-polar compounds which have been encapsulated in the hydrophobic micro-domain provided by the core of these polymeric micelles.
Subsequently, the solution is diluted by adding polymer solution corresponding to a 1×10^−3 M concentration until the compound of interest reaches a stock concentration in the range of 625-1,250 ppm in the micelle to be applied to the plate. This dilution should be done by adding polymer solution so as to maintain the same concentration of micelles and vary only the concentration of active ingredient.
In order to determine the inhibition of mycelial growth of B. cinerea, both for the free state and encapsulated compounds, the radial growth method in potato dextrose agar (PDA) culture medium was used. The compounds of interest in both free and encapsulated form were added to the PDA at different concentrations of 50, 150 and 250 ppm at a temperature of 50° C. Once the PDA had been solidified, a 4-mm diameter disc was seeded with mycelium of the pathogen in the center of the petri dish. The experiment consists of a negative control which is a petri dish where PDA culture medium and 1% Ethanol were added, in the case of Negative Control for encapsulated compounds it consists in adding only the micelle (polycaprolactone or Pluronic […]) free in PDA. In addition, a positive control containing commercially available fungicide Captan in PDA culture medium is included at the same concentrations tested in both its free form and also a positive control of Captan in its encapsulated form. Each treatment consisted of three replicates (n=3 replicates/compound/concentration).
After 48 (free state) and 72 (encapsulated system) hours of incubation at 23° C. under a photoperiod of 16 light hours/8 darkness hours, the mycelial growth inhibition percentage (MGIP) was calculated by assessing the measurement of the diameter of the fungus growth around the disc to calculate the mycelial growth inhibition area. In this way, the mycelial growth inhibition percentage that was compared to the corresponding controls after 48 hours of incubation was determined.

[1] = encapsulated in Pluronic F-127 (Triblock) micelles, 50 ppm, 72 hours
[2] = 48 h, read-out: Mycelial inhibition percentage of Botrityscinerea in vitro, free compound, 50 ppm in PDA, 48 hours of incubation
[3] = 48 h, read-out: Mycelial inhibition percentage of Botrityscinerea in vitro, free compound, 150 ppm in PDA, 48 hours of incubation
[4] = 48 h, read-out: Mycelial inhibition percentage of Botrityscinerea in vitro, free compound, 250 ppm in PDA, 48 hours of incubation
[5] = 72 h, read-out: Mycelial inhibition percentage of Botrityscinerea in vitro, encapsulated in Polycaprolactone (Diblock) micelles, 50 ppm, 72 hours
[6] = 72 h, read-out: Mycelial inhibition percentage of Botrityscinerea in vitro, encapsulated in Polycaprolactone (Diblock) micelles, 150 ppm, 72 hours
[7] = 72 h, read-out: Mycelial inhibition percentage of Botrityscinerea in vitro, encapsulated in Polycaprolactone (Diblock) micelles, 250 ppm, 72 hours
[8] = 72 h, read-out: Mycelial inhibition percentage of Botrityscinerea in vitro, encapsulated in Pluronic F-127 (Triblock) micelles, 50 ppm, 72 hours
[9] = 72 h, read-out: Mycelial inhibition percentage of Botrityscinerea in vitro, encapsulated in Pluronic F-127 (Triblock) micelles, 150 ppm, 72 hours
[10] = 72 h, read-out: Mycelial inhibition percentage of Botrityscinerea in vitro, encapsulated in Pluronic F-127 (Triblock) micelles, 250 ppm, 72 hours

| SMILES | Mycelial inhibition percentage of Botrityscinerea in vitro [1] [%] | inhibition at 50 ppm [2] [%] | inhibition at 150 ppm [3] [%] | inhibition at 250 ppm [4] [%] | inhibition at 50 ppm [5] [%] | inhibition at 150 ppm [6] [%] | inhibition at 250 ppm [7] [%] | inhibition at 50 ppm [8] [%] | inhibition at 150 ppm [9] [%] | inhibition at 250 ppm [10] [%] | Activity compared with the positive control when encapsulated in Pluronic F-127 micelle (in words) | other results |
| --- | --- | --- | --- | --- | --- | --- | --- | --- | --- | --- | --- | --- |
| O=C1C2CC=CCC2C(=O)N1SC(Cl)(Cl)Cl (stereo not shown) [C+ (positive control), Captan, reference compound] | 98 |  |  |  |  |  |  |  |  |  |  | Mycelial inhibition percentage of Botrityscinerea in vitro (encapsulated in Pluronic F-127 (Triblock) micelles, 150 ppm, 72 hours): 99%; Mycelial inhibition percentage of Botrityscinerea in vitro (encapsulated in Pluronic F-127 (Triblock) micelles, 250 ppm, 72 hours): 99%; Mycelial inhibition percentage of Botrityscinerea in vitro (encapsulated in Polycaprolactone (Diblock) micelles, 50 ppm, 72 hours): 93%; Mycelial inhibition percentage of Botrityscinerea in vitro (encapsulated in Polycaprolactone (Diblock) micelles, 150 ppm, 72 hours): 99%; Mycelial inhibition percentage of Botrityscinerea in vitro (encapsulated in Polycaprolactone (Diblock) micelles, 250 ppm, 72 hours): 99%; Mycelial inhibition percentage of Botrityscinerea in vitro (free compound, 50 ppm in PDA, 48 hours of incubation): 87%; Mycelial inhibition percentage of Botrityscinerea in vitro (free compound, 150 ppm in PDA, 48 hours of incubation): 94%; Mycelial inhibition percentage of Botrityscinerea in vitro (free compound, 250 ppm in PDA, 48 hours of incubation): 94% |
| CC(C)=CCC/C(C)=C/Cc1c(C)cc(O)cc1O [Formula 1] |  | 0 | 25 | 75 | 37 | 61 | 73 |  |  |  |  | Effect on the mycelium of the pathogen when encapsulated in polycaprolactone micelles (in words): slightly improved |
| CC(C)=CCC/C(C)=C/Cc1c(C)cc(O)c(C/C=C(\C)CCC=C(C)C)c1O [Formula 2] | 85 | 25 | 61 | 93 | 16 | 36 | 37 | 81 to 99 | 91 | 96 | equal to the activity of the positive control |  |
| CC(C)=CCC/C(C)=C/Cc1c(O)cc(C)cc1O [Formula 3] |  | 37 | 65 | 82 | 9 | 32 | 42 |  |  |  |  | Effect on the mycelium of the pathogen when encapsulated in polycaprolactone micelles (in words): inactive |
| CC(C)=CCC/C(C)=C/Cc1c(O)cc(O)c(C/C=C(\C)CCC=C(C)C)c1C [Formula 4] | 82 | 12 | 56 | 83 | 93 | 94 | 97 | 81 to 99 | 92 | 96 | equal to the activity of the positive control |  |
| CC(=O)Oc1cc(C)c(C/C=C(\C)CCC=C(C)C)c(OC(C)=O)c1 [Formula 5] |  |  |  |  |  |  |  |  |  |  |  | inhibition at 50 ppm (encapsulated in Polycaprolactone (Diblock) micelles, 50 ppm, 72 hours, read-out: Mycelial inhibition percentage of Botrityscinerea in vitro): 16%; inhibition at 150 ppm (encapsulated in Polycaprolactone (Diblock) micelles, 150 ppm, 72 hours, read-out: Mycelial inhibition percentage of Botrityscinerea in vitro): 39%; inhibition at 250 ppm (encapsulated in Polycaprolactone (Diblock) micelles, 250 ppm, 72 hours, read-out: Mycelial inhibition percentage of Botrityscinerea in vitro): 80%; inhibition at 50 ppm (free compound, 50 ppm in PDA, 48 hours of incubation, read-out: Mycelial inhibition percentage of Botrityscinerea in vitro): 24%; inhibition at 150 ppm (free compound, 150 ppm in PDA, 48 hours of incubation, read-out: Mycelial inhibition percentage of Botrityscinerea in vitro): 55%; inhibition at 250 ppm (free compound, 250 ppm in PDA, 48 hours of incubation, read-out: Mycelial inhibition percentage of Botrityscinerea in vitro): 78% |
| CC(=O)Oc1cc(C)c(C/C=C(\C)CCC=C(C)C)c(OC(C)=O)c1C/C=C(\C)CCC=C(C)C [Formula 6] | 93 | 5 | 69 | 97 | 10 | 31 | 50 | 81 to 99 | 99 | 99 | equal to the activity of the positive control |  |
| CC(=O)Oc1cc(C)cc(OC(C)=O)c1C/C=C(\C)CCC=C(C)C [Formula 7] |  | 8 | 51 | 82 | 32 | 35 | 59 |  |  |  |  |  |
| CC(=O)Oc1cc(OC(C)=O)c(C/C=C(\C)CCC=C(C)C)c(C)c1C/C=C(\C)CCC=C(C)C [Formula 8] | 93 | 11 | 54 | 85 | 0 | 36 | 36 | 81 to 99 | 99 | 99 | equal to the activity of the positive control |  |
